Here are results for 1 molecule from article PMC11345829, “Discovery of Potent Isoquinolinequinone N-Oxides to Overcome Cancer Multidrug Resistance” (Journal of Medicinal Chemistry, 2024).

Series [1] concerns NSCLC cell line panel. The experiment in a line: NCI60 five-dose GI50, NSCLC cell line panel. Particulars: Homo sapiens, read-out: GI50 range NSCLC cell line panel. In kind it is cell-based. From the text:
The concentration−response curve generated enables the determination of three criteria, GI50 (drug concentration at which 50% of cell growth is inhibited), total growth inhibition (TGI) and LC50 (drug concentration at which 50% of tumor cells are killed) which can be used to compare effectiveness against any compound tested in the screen since its inception.
S2.1 NCI Screening Assay Experimental details
NCI Screening Assay Experimental: Cancer cell growth assays (NCI60 screening) 5,6 One-dose study: Tested compounds were initially solubilised in DMSO, diluted into RPMI 1640 and 5% fetal bovine serum/L-glutamine, and added to 96-well plates containing cell lines previously cultured for 24 h. […] The dye was then resolubilised in Tris buffer, and the colorimetric absorbance was measured (515 nm). Growth inhibition was measured relative to the response generated from proliferating cells cultured under identical conditions for 48 h. […]
Five-dose study: Serial 5 × 10-fold dilution from an initial DMSO stock solution was performed, prior to incubation at each individual concentration (10 nM, 100 nM, 1 μM, 10 μM and 100 μM). Using seven absorbance measurements (time zero (Tz), control growth (C), and test growth in the presence of drug at the five concentration levels (Ti)), the percentage growth was calculated at each of the drug concentrations levels. […]

For series [2], the system named is DLD1-TxR spheroids. Briefly: Cell Titer-Glo 3D spheroid viability assay. It is filed as cell-based, human. Particulars: 48 h; 25 at 0.61 and 1.22 μM. From the text: (§1) Figure 12 Effect of compound 25 on the viability of spheroids established from two counterpart pairs of sensitive and MDR cell lines, from NSCLC (NCI-H460 and NCI-H460/R) and colorectal cancer (DLD1 and DLD1-TxR), using MicroTissue 3D Petri dishes. […] (B) Effect of compound 25 on the viability of NCI-H460 spheroids analyzed by Cell Titer-Glo 3D viability assay. (C) Effect of compound 25 on the viability of NCI-H460/R spheroids analyzed with the Cell Titer-Glo 3D viability assay. Results are presented as the % of luciferase luminescence relative to the “blank” cells (medium). […] (E) Effect of compound 25 on the viability of DLD1 spheroids analyzed by Cell Titer-Glo 3D viability assay. (F) Effect of compound 25 on the viability of DLD1-TxR spheroids analyzed with the Cell Titer-Glo 3D viability assay. Data are expressed as mean ± SEM from 3 independent experiments. * p ≤ 0.05 and ** p ≤ 0.01, when comparing DMSO vs compound treatment.
(§2) Spheroid formation was conducted in 12-series agarose 3D Petri Dish micromolds (MicroTissues Technology, MicroTissues Inc., Sigma-Aldrich). The agarose micromolds were prepared using 1% agarose in a 0.9% NaCl solution and then placed in 12-well plates and equilibrated with RPMI supplemented with 10% FBS for at least 2 h before cell seeding. Cell suspensions corresponding to 500 cells per spheroid of the NSCLC cell lines (NCI-H460 and NCI-H460/R), and 1000 cells per spheroid of the colorectal cancer cell lines (DLD1 and DLD1-TxR) were seeded in the corresponding micromolds. The choice of cell seeding concentration was based on a previous optimization assay (data not shown), ensuring that at the end of the assay the spheroids would have a size of around 400 μm. A 20 min incubation period was used for cells to settle into the micromolds and additional medium was finally added to the wells. Spheroid formation was monitored with the Leica DMi1 microscope. […] At the end of the treatment, images from at least 8 different spheroids per condition were captured on the Leica Dmi1 microscope, and posteriorly analyzed with the automated open-source software AnaSP.[82] Spheroid parameters, such as equivalent diameter, circularity, and compactness, were calculated.
(§3) Spheroid viability was determined through the luminescence-based Cell Titer-Glo 3D cell viability assay (Promega). Spheroids grown on MicroTissues 3D Petri Dish micromolds were exposed to the treatments, as described in the previous section. Then, the spheroids were transferred into 96-well plates in 50 μL of RPMI medium. […] The plate was then incubated in the dark for 5 min with agitation and allowed to rest for 25 min before luminescence measurement. Luminescence was quantified using the microplate reader Synergy MX coupled with the GEN5 software. […]
In general terms: ATP-based viability assays read luminescence as a measure of living cells.

The test system of series [3] is DLD1 spheroids. The experiment in a line: Cell Titer-Glo 3D spheroid viability assay. In kind it is cell-based, human. Particulars: 48 h; 25 at 0.61 and 1.22 μM.
Text: as §1, §2, §3

The target in series [4] is T1, P-gp mediated drug efflux in NCI-H460/R cells (Homo sapiens, UniProt P08183).
T1 construct: these cells overexpress the MDR1 gene which encodes for P-gp; endogenous in cells; host or cells: NCI-H460/R (doxorubicin-selected MDR human NSCLC cells)
Briefly: Rhodamine-123 accumulation (drug efflux) assay. Particulars: 1 h, 10 or 20 μM. It is filed as cell-based. As for the experimental part:
Figure 11 Relative rhodamine-123 accumulation in NCI-H460 or in NCI-H460/R cells following treatment with compound 25, evaluated by flow cytometry (rhodamine-123 efflux assay). Cells were incubated for 1 h with medium, DMSO (vehicle at the % used in the highest tested concentration of 25), verapamil (positive control), or compound 25 at two different concentrations (10 and 20 μM). Verapamil (20 μM) was used as a positive control (P-gp inhibitor). Results are the mean ± SEM of at least 3 independent experiments. * p ≤ 0.05, when comparing vehicle (DMSO) vs compound treatment in NCI-H460/R cells.
The NSCLC cells (1.5 × 10^5 cells/mL) were incubated for 1 h at 37 °C in the presence of 10 μM or 20 μM of compound 25 and with 1 μM of rhodamine-123 (Sigma-Aldrich). NCI-H460 cells without treatment were used as a negative control and NCI-H460/R cells treated with verapamil (a known P-gp inhibitor) at concentrations of 10 and 20 μM were used as a positive controls.[80],[81] After the incubation time, cells were washed in cold PBS and kept at 4 °C, protected from light until analysis in the flow cytometer. At least 10 000 cells per sample were acquired and analyzed on the BD Accuri C6 flow cytometer.

Each structure is given as a SMILES string.

T1 sequence (P08183 whole entry): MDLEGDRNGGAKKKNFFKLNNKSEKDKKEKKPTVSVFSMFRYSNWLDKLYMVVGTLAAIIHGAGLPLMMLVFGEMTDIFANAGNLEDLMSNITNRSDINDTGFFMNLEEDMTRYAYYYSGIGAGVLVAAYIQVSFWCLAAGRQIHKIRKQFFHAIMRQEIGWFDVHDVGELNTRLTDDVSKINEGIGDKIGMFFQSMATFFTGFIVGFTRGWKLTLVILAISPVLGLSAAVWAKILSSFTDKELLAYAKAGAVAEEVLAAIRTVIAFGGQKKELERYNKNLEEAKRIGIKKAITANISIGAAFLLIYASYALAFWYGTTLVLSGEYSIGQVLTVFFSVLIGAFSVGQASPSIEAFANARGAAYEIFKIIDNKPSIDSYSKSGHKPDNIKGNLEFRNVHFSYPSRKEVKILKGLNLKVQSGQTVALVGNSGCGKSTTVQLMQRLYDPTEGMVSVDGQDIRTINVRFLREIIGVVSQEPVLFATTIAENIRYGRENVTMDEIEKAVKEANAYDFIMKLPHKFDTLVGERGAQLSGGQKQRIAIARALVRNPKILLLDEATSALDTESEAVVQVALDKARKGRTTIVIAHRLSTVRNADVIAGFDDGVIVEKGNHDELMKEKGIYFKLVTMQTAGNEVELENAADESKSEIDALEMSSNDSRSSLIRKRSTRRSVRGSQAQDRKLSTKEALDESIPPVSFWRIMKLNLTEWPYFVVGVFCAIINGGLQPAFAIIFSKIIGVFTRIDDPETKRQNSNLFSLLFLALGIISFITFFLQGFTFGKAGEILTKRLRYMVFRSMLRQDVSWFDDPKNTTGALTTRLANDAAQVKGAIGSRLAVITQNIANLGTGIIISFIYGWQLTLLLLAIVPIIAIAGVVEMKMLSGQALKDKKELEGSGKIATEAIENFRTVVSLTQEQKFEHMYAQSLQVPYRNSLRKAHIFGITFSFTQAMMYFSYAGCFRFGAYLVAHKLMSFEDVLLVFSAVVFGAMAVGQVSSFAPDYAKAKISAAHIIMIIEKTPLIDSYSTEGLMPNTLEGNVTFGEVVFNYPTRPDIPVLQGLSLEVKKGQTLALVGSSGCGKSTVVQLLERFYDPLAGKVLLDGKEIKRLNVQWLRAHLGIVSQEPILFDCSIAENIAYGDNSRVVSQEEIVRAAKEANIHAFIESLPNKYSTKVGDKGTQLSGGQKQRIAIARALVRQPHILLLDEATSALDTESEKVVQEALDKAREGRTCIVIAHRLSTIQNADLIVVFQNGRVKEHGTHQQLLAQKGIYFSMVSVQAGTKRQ

On to `COC(=O)c1c2c(c[n+]([O-])c1C)C(=O)C=C(NCc1ccccc1)C2=O` [Compound 25], for which the GI50 (usually the concentration that inhibits growth by half) in series [1] lay within 174 to 397 nM. Also, in series [2], the “viability of DLD1-TxR spheroids” value is recorded as “significant decrease in the viability of the spheroids”. Moreover, the “viability of DLD1 spheroids” value in series [3] is given as “significant decrease in the viability of the spheroids”. Besides, the rhodamine-123 accumulation entry in series [4] is recorded as “caused rhodamine accumulation within the cells, in a similar extent to the positive control verapamil”.
